Test system: Cooperia Curticei
Test: In-vivo test on Cooperia curticei on sheep using peroral application
Settings: Monepantel 0.625 mg/kg, Abamectin 0.05 mg/kg; for Efficacy [%]: 100×(C−T)/C of worm count means vs untreated control, days 14-17; for Efficacy [%] / log [Worm count] [geometric mean value] / Reduction worm count [factor] / Reduction log [worm count]: L4 stage, oral, combination 0.625 & 0.05 mg/kg; for Worm count [Geometric mean value]: experimentally induced infection, treated at L4 stage, single oral application, combination 0.625 & 0.05 mg/kg bodyweight, slaughter days 14-17 after treatment, untreated control 4266; for log [Worm count] [geometric mean value]: log transformed worm counts, untreated control 3.631; for Reduction worm count [factor]: observed; for Reduction worm count [factor] / Reduction log [worm count]: vs untreated control
Description: In-Vivo Test on Cooperia Curticei on Sheep Using Peroral Application
The study concerned a blinded parallel-group efficacy study against the L4 stage of the subject nematodes. The experimental induced worm burdens of monepantel/abamectin combination treated animals were compared to those of an untreated control group and sheep treated animals with either monepantel or abamectin mono-formulations.
To this end the required larvae were generated first of all through culturing of characterized field isolates. Each animal then received the same dose of L3 (infective) larvae, and their larvae burdens were allowed time to mature. Once the larvae reached the L4 stage, the sheep were allocated to treatment groups 1, 2, 3 and 4 and treated as defined in the Table below:
Oral application using the above described formulations: […]
Two weeks after treatment (days 14-17) the sheep were slaughtered, their gastro-intestinal tracts recovered and processed for enumeration of total worm burdens. The primary measure of efficacy was calculated from the mean worm reduction in groups 2-4 when compared to the untreated control group 1. Efficacies were calculated using the formula
wherein C and T are the worm count means of the Control and Treated groups, respectively.
To this end, worm counts were log transformed as follows: […]

C[C@](C#N)(COc1cc(C#N)ccc1C(F)(F)F)NC(=O)c1ccc(SC(F)(F)F)cc1 [Monepantel, N-((1S)-1-cyano-2-(5-cyano-2-trifluoro-methylphenoxy)-1-methylethyl)-4-trifluoromethylsulfanylbenzamide]
Efficacy [%]: 66.0%
Worm count [Geometric mean value]: 1453
log [Worm count] [geometric mean value]: 3.165
Reduction worm count [factor]: ~2.9 factor
Reduction log [worm count]: −0.466

abamectin
Efficacy [%]: 68.3%
Worm count [Geometric mean value]: 1352
log [Worm count] [geometric mean value]: 3.134
Reduction worm count [factor]: ~3.1 factor
Reduction log [worm count]: −0.497

— patent publication US20130065847A1, “ENDOPARASITICIDAL COMPOSITIONS” (priority 2010, published 2013)
